Among the data in US20050145571A1, “Extraction and recovery of ions from a solution” (priority 2001, published 2005) are solubility values, retold here.

The conditions of the data set: at 23° C.

The structures appear in SMILES notation.

`O=S(=O)([O-])C(F)(F)C(F)(F)C(F)(F)C(F)(F)C(F)(F)C(F)(F)C(F)(F)C(F)(F)F.[K+]` [KPFS-8, potassium PFS-8] came in with a solubility not above 1 g/L.

The solubility is how much of the substance goes into solution per volume.
